The supplement of paper PMC10721915
± gives the standard deviation of the averaged measurements.

Compound: COc1ccc([C@@H](O)c2cc(-c3ncnc4cc(N5CCOCC5)ccc34)c(F)cc2Cl)nn1 [peposertib]
Assay: relative cell growth vs untreated control (GI, NCI-DTP normalisation with time-zero) (fraction of control growth); higher = more growth / less inhibition
Settings: treatment time: 120 h
Protocol: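 Cancer cell lines were treated with peposertib (DNA-PK inhibitor) combined with gamma ionizing radiation (0, 2, 3 or 6 Gy) for 120 h, starting 48 h after seeding. Read-out was sulforhodamine B total-protein staining, normalised to untreated control and time-zero wells (NCI-DTP GI convention).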

[1] = peposertib concentration 0.00488 µM, gamma irradiation dose (Gy): 0
[2] = peposertib concentration 0.0195 µM, gamma irradiation dose (Gy): 0
[3] = peposertib concentration 0.0781 µM, gamma irradiation dose (Gy): 0
[4] = peposertib concentration 0.313 µM, gamma irradiation dose (Gy): 0
[5] = peposertib concentration 1.25 µM, gamma irradiation dose (Gy): 0
[6] = peposertib concentration 5 µM, gamma irradiation dose (Gy): 0
[7] = peposertib concentration 0.00488 µM, gamma irradiation dose (Gy): 3
[8] = peposertib concentration 0.0195 µM, gamma irradiation dose (Gy): 3
[9] = peposertib concentration 0.0781 µM, gamma irradiation dose (Gy): 3
[10] = peposertib concentration 0.313 µM, gamma irradiation dose (Gy): 3
[11] = peposertib concentration 1.25 µM, gamma irradiation dose (Gy): 3
[12] = peposertib concentration 5 µM, gamma irradiation dose (Gy): 3

A204 gave a relative cell growth [1] of 1.06, a relative cell growth [2] of 1.01 and a relative cell growth [3] of 0.892. The relative cell growth [4] was 0.616, the relative cell growth [5] was 0.298 and the relative cell growth [6] was 0.0711.
A549 showed a relative cell growth [1] of 1.031 ± 0.01, a relative cell growth [7] of 0.766 and a relative cell growth [2] of 1.02 ± 0.014. The relative cell growth [8] was 0.613, the relative cell growth [3] was 0.966 ± 0.019 and the relative cell growth [9] was 0.256. It also gave a relative cell growth [4] of 0.782 ± 0.071, a relative cell growth [10] of 0.0863 and a relative cell growth [5] of 0.442 ± 0.079. For the same test system, the relative cell growth [11] was 0.0255, the relative cell growth [6] was 0.113 ± 0.013 and the relative cell growth [12] was 0.0147.
A2780 gave a relative cell growth [1] of 1.03, a relative cell growth [2] of 1.04 and a relative cell growth [3] of 1.02. It also gave a relative cell growth [4] of 0.999, a relative cell growth [5] of 0.858 and a relative cell growth [6] of 0.156.
ASPC1 showed a relative cell growth [1] of 1.1, a relative cell growth [2] of 0.966 and a relative cell growth [3] of 1. The relative cell growth [4] was 0.891, the relative cell growth [5] was 0.67 and the relative cell growth [6] was 0.22.
Test System BXPC3 has a relative cell growth [1] of 0.935, a relative cell growth [2] of 0.946 and a relative cell growth [3] of 0.903. For the same test system, the relative cell growth [4] was 0.789, the relative cell growth [5] was 0.437 and the relative cell growth [6] was 0.137.
In the case of CACO2, the relative cell growth [1] is reported as 0.994 ± 0.066, the relative cell growth [7] is reported as 0.722 and the relative cell growth [2] is reported as 0.959 ± 0.018. The relative cell growth [8] was 0.713, the relative cell growth [3] was 0.92 ± 0.033 and the relative cell growth [9] was 0.595. It also gave a relative cell growth [4] of 0.85 ± 0.0095, a relative cell growth [10] of 0.322 and a relative cell growth [5] of 0.644 ± 0.03. It also gave a relative cell growth [11] of 0.195, a relative cell growth [6] of 0.238 ± 0.01 and a relative cell growth [12] of 0.098.
COLO205 showed a relative cell growth [1] of 0.984 ± 0.071, a relative cell growth [7] of 0.413 and a relative cell growth [2] of 0.996 ± 0.039. The relative cell growth [8] was 0.367, the relative cell growth [3] was 1.01 ± 0.044 and the relative cell growth [9] was 0.203. It also gave a relative cell growth [4] of 0.969 ± 0.029, a relative cell growth [10] of 0.0736 and a relative cell growth [5] of 0.7949 ± 0.007. It also gave a relative cell growth [11] of 0.0589, a relative cell growth [6] of 0.351 ± 0.04 and a relative cell growth [12] of 0.0686.
DLD1 gave a relative cell growth [1] of 1.01 ± 0.015, a relative cell growth [7] of 0.55 and a relative cell growth [2] of 0.997 ± 0.014. It also gave a relative cell growth [8] of 0.518, a relative cell growth [3] of 1 ± 0.042 and a relative cell growth [9] of 0.389. It also gave a relative cell growth [4] of 0.959 ± 0.033, a relative cell growth [10] of 0.137 and a relative cell growth [5] of 0.842 ± 0.09. The relative cell growth [11] was 0.0235, the relative cell growth [6] was 0.445 ± 0.091 and the relative cell growth [12] was 0.00897.
DU145 showed a relative cell growth [1] of 0.999, a relative cell growth [2] of 0.996 and a relative cell growth [3] of 0.96. The relative cell growth [4] was 0.874, the relative cell growth [5] was 0.618 and the relative cell growth [6] was 0.287.
For EFO21, the relative cell growth [1] was 1.05, the relative cell growth [2] was 1.04 and the relative cell growth [3] was 0.909. It also gave a relative cell growth [4] of 0.667, a relative cell growth [5] of 0.352 and a relative cell growth [6] of 0.141.
Work on EJ28 yielded a relative cell growth [1] of 1.05, a relative cell growth [2] of 1.02 and a relative cell growth [3] of 1.02. For the same test system, the relative cell growth [4] was 0.945, the relative cell growth [5] was 0.824 and the relative cell growth [6] was 0.554.
HCT15 gave a relative cell growth [1] of 0.998 ± 0.048, a relative cell growth [7] of 0.555 and a relative cell growth [2] of 0.896 ± 0.056. The relative cell growth [8] was 0.482, the relative cell growth [3] was 1.002 ± 0.0063 and the relative cell growth [9] was 0.298. It also gave a relative cell growth [4] of 0.964 ± 0.028, a relative cell growth [10] of 0.147 and a relative cell growth [5] of 0.792 ± 0.062. It also gave a relative cell growth [11] of 0.0634, a relative cell growth [6] of 0.301 ± 0.074 and a relative cell growth [12] of 0.0278.
Work on HEPG2 yielded a relative cell growth [1] of 0.956, a relative cell growth [2] of 0.977 and a relative cell growth [3] of 0.977. For the same test system, the relative cell growth [4] was 0.91, the relative cell growth [5] was 0.603 and the relative cell growth [6] was 0.211.
Test System HL60 has a relative cell growth [1] of 0.998, a relative cell growth [2] of 0.975 and a relative cell growth [3] of 0.929. It also gave a relative cell growth [4] of 0.808, a relative cell growth [5] of 0.526 and a relative cell growth [6] of 0.238.
In the case of HS578T, the relative cell growth [1] is reported as 1.01, the relative cell growth [2] is reported as 1.01 and the relative cell growth [3] is reported as 1.02. For the same test system, the relative cell growth [4] was 0.947, the relative cell growth [5] was 0.581 and the relative cell growth [6] was 0.182.
In the case of HS729, the relative cell growth [1] is reported as 1.05, the relative cell growth [2] is reported as 1.06 and the relative cell growth [3] is reported as 1.02. It also gave a relative cell growth [4] of 0.867, a relative cell growth [5] of 0.716 and a relative cell growth [6] of 0.422.
HT29 was tested, and the relative cell growth [1] was 0.978 ± 0.029, the relative cell growth [7] was 0.885 and the relative cell growth [2] was 0.9825 ± 0.0091. The relative cell growth [8] was 0.857, the relative cell growth [3] was 0.974 ± 0.023 and the relative cell growth [9] was 0.642. It also gave a relative cell growth [4] of 0.906 ± 0.03, a relative cell growth [10] of 0.152 and a relative cell growth [5] of 0.658 ± 0.021. The relative cell growth [11] was 0.0553, the relative cell growth [6] was 0.252 ± 0.0096 and the relative cell growth [12] was 0.0433.
In the case of HT1080, the relative cell growth [1] is reported as 1.08, the relative cell growth [2] is reported as 1.09 and the relative cell growth [3] is reported as 1.08. The relative cell growth [4] was 1.11, the relative cell growth [5] was 1.11 and the relative cell growth [6] was 1.
IGROV1 showed a relative cell growth [1] of 1.02, a relative cell growth [2] of 1.02 and a relative cell growth [3] of 0.965. For the same test system, the relative cell growth [4] was 0.789, the relative cell growth [5] was 0.22 and the relative cell growth [6] was -0.0182.
J82 was tested, and the relative cell growth [1] was 1.02, the relative cell growth [2] was 1.03 and the relative cell growth [3] was 0.991. The relative cell growth [4] was 0.876, the relative cell growth [5] was 0.64 and the relative cell growth [6] was 0.377.
JIMT1 gave a relative cell growth [1] of 0.999, a relative cell growth [2] of 1.01 and a relative cell growth [3] of 0.999. The relative cell growth [4] was 0.906, the relative cell growth [5] was 0.561 and the relative cell growth [6] was 0.232.
For KASUMI1, the relative cell growth [1] was 0.984, the relative cell growth [2] was 0.968 and the relative cell growth [3] was 0.859. It also gave a relative cell growth [4] of 0.577, a relative cell growth [5] of 0.181 and a relative cell growth [6] of -0.0751.
L363 gave a relative cell growth [1] of 0.996, a relative cell growth [2] of 1 and a relative cell growth [3] of 0.98. For the same test system, the relative cell growth [4] was 0.813, the relative cell growth [5] was 0.39 and the relative cell growth [6] was 0.0471.
In the case of LOVO, the relative cell growth [1] is reported as 1.01 ± 0.055, the relative cell growth [7] is reported as 0.384 and the relative cell growth [2] is reported as 0.946 ± 0.026. The relative cell growth [8] was 0.357, the relative cell growth [3] was 0.83 ± 0.068 and the relative cell growth [9] was 0.28. The relative cell growth [4] was 0.617 ± 0.11, the relative cell growth [10] was 0.186 and the relative cell growth [5] was 0.348 ± 0.083. For the same test system, the relative cell growth [11] was 0.0588, the relative cell growth [6] was 0.16 ± 0.064 and the relative cell growth [12] was 0.00966.
Work on MDAMB231 yielded a relative cell growth [1] of 1.11, a relative cell growth [2] of 1.1 and a relative cell growth [3] of 1.06. For the same test system, the relative cell growth [4] was 1.04, the relative cell growth [5] was 0.995 and the relative cell growth [6] was 0.84.
